# What was measured:
# [1] = test system: cortisol aptamer, fluorescein at 5' end (DNA, aptamer) CTCTCGGGACGACCGGTCTGGGGACCCTGTCTGGGTGTGTGGGTAGTAGGTCGTCCC; test: competitive structure-switching fluorescence (FAM/dabcyl); details: 154 mM NaCl, 1.058 mM KH2PO4, 2 mM MgCl2; PBS pH 7.3-7.5; dabcyl quencher strand GGTCGTCCCGAGAG displaced, aptamer:quencher 1:5
# [2] = test system: thiolated cortisol aptamer (DNA, aptamer) CGACCGGTCTGGGGACCCTGTCTGGGTGTGTGGGTAGTAGGTCG; test: aptamer field-effect transistor; details: artificial sweat (Table S5), immobilised aptamer; for binding: negligible response at physiological concentrations versus 10 nM cortisol
# [3] = test system: thiolated serotonin aptamer (DNA, aptamer) CGACTGGTAGGCAGATAGGGGAAGCTGATTCGATGCGTGGGTCG; test: aptamer field-effect transistor; details: artificial sweat (Table S5); immobilised aptamer; response over 10 fM to 100 µM
Kd [1] [nM],"Kd ([2]; on-FET, gate-voltage sweep, apparent)",binding [2],binding [3],Structure (SMILES)
500,~ 30 pM,,,C[C@]12CCC(=O)C=C1CC[C@@H]1[C@@H]2[C@@H](O)C[C@@]2(C)[C@H]1CC[C@]2(O)C(=O)CO
,,no,,C[C@]12CC[C@H]3[C@@H](CCC4=CC(=O)CC[C@@]43C)[C@@H]1CC[C@@H]2O
,,no,yes,NCCc1c[nH]c2ccc(O)cc12
,,no,,CC(=O)[C@H]1CC[C@H]2[C@@H]3CCC4=CC(=O)CC[C@]4(C)[C@H]3CC[C@]12C
